Reference: article PMC13429874, “ABHD2 activity is not required for the non-genomic action of progesterone on human sperm” (Human Reproduction (Oxford, England), 2026)

Legend:
[1] = test system: human sperm; experiment: Sperm intracellular Ca2+ measurements (Fluo-4); type: cell-based
Description: Measurements of the changes in sperm intracellular Ca^2+ concentration ([Ca^2+]i) were performed on motile human sperm purified by swim-up. Semen samples were allowed to liquefy for 15–60 min at 37°C, and 0.5–1 ml liquified semen was layered beneath 4 ml human tubal fluid medium (HTF; 97.8 mM NaCl, 4.69 mM KCl, 0.2 mM MgSO4, 0.37 mM KH2PO4, 2.04 mM CaCl2, 2.78 mM glucose, 0.33 mM sodium pyruvate, 21.4 mM lactic acid, 4 mM NaHCO3, and 21 mM HEPES pH 7.35 adjusted with NaOH) in 50 ml conical tubes. Motile sperm were allowed to swim up into the HTF for 60–90 min at 37°C, collected, washed twice (700 × g, 20 min, 37°C), and resuspended in HTF containing 3 mg/ml HSA at a density of 1 × 10^7 sperm/ml. Changes of [Ca^2+]i in motile human sperm were measured as previously described ([Rennhack et al., 2018]), using a fluorescence plate-reader assay (FLUOstar Omega, BMG LABTECH) with 384-well plates. Swim-up-purified sperm were loaded with Fluo4-AM (5 μM, Thermo Fisher Scientific, Waltham, MA, USA) and Pluronic F-127 (0.05% w/v) for 20 min at 37°C. Excess dye was removed by centrifugation at 700 × g for 5 min, supernatant removal, and resuspension to 5 × 10^6 sperm/ml in HTF.
For recordings, wells of a 384-well plate were filled with 50 μl of the dye-loaded sperm suspension. Fluorescence was excited at 480 nm, and emission was recorded at 520 nm using a plate reader (Fluostar Omega, BMG Labtech). After establishing a baseline for at least 60 s, 25 µl test compound solutions were added and the fluorescence response recorded. After 4 min, 7.5 µl progesterone was added to reach a final concentration of 3 µM, and ensuing changes in fluorescence were recorded. For the analysis of compound-evoked Ca^2+ signal, basal fluorescence (F0) was determined prior to compound addition. For the determination of inhibitory effects of compounds on progesterone-evoked Ca^2+ signals, basal fluorescence (F0) was determined before progesterone addition. The CatSper inhibitor TS150 ([Schierling et al., 2023]) was used as a control. Each compound was tested in technical duplicates across ≥3 biological replicates, using sperm from at least two donors, and performed on at least two separate days.
Data analysis and graphical representation were performed with GraphPad Prism software version 10.6.1 (San Diego, CA, USA). Changes in Fluo-4 fluorescence are depicted as ΔF/F0 (%), i.e. the change in fluorescence (ΔF) relative to the mean basal fluorescence (F0) before application of buffer or compounds/ligands, to correct for intra- and inter-experimental variations in basal fluorescence among individual wells or to correct for compound-evoked changes in fluorescence. Signal amplitudes evoked in the presence of compounds were normalized to the maximal signal amplitude evoked by 3 µM progesterone in the absence of the compound (set to 1) to ease comparisons between experiments.

[2] = target: T1, ABHD2^L33–E425 (Homo sapiens, UniProt P08910); experiment: ABHD2^L33-E425 fluorometric enzymatic activity assay with 7-HCA substrate; type: biochemical; settings: 10 nM enzyme, 10 µM 7-HCA; read-out: IC50 for ABHD2^L33-425, fluorometric assay using 7-HCA
T1 construct: expression for ABHD2 amino acids L33–E425, in which a predicted transmembrane domain (amino acids 1–32) is removed; His6-FLAG (N); made in house; host or cells: E. coli BL21(DE3)-R3-pRARE2
T1 sequence (P08910 33-425): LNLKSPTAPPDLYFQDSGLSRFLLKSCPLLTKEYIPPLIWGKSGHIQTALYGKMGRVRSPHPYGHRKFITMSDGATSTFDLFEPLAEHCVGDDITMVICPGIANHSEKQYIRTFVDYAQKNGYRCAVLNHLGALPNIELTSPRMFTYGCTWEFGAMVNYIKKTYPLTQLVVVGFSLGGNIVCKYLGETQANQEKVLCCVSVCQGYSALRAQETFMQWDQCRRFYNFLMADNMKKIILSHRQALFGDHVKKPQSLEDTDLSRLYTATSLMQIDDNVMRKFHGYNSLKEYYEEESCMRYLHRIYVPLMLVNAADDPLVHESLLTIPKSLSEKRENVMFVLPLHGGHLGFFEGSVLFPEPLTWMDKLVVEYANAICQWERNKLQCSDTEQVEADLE

[3] = target: T2, human ABHD10 (Homo sapiens, UniProt Q9NUJ1); experiment: ABHD10 colorimetric assay with p-nitrophenyl butyrate; type: biochemical; settings: 10 µM compound, 500 µM p-NPB
T2 construct: Constructs encoding amino acids T53—N306 of human ABHD10; His6-TEV site (N); made in house; host or cells: E. coli
T2 sequence (Q9NUJ1 53-306): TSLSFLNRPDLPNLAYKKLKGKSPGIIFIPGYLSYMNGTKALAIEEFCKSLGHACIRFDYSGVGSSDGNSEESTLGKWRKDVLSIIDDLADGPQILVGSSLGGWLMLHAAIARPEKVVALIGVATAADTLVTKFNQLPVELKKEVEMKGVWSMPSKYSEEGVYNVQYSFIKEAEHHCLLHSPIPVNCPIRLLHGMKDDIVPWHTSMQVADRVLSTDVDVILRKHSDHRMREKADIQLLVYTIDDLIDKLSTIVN
Description: Enzymatic activities of ABHD10 and ABHD11 were measured in a colorimetric assay using p-nitrophenyl butyrate (p-NPB) as substrate. Enzymes at 1500 nM ABHD10 and 125 nM ABHD11 in 20 mM HEPES pH 7.5, 150 mM NaCl, and 2% (v/v) DMSO were pre-incubated in 96-well plates with 50 µM test compound for 30 min at 4°C. Plates were then equilibrated at 37°C for 2 min, and reactions were initiated by adding 160 µl of pre-warmed substrate solution (same buffer with 625 µM p-NPB) to a total volume of 200 µl, yielding final assay concentrations of 300 nM ABHD10, 25 nM ABHD11, and 500 µM pNPB. The substrate solution was prepared immediately before addition to the enzyme mixtures. Absorbance at 405 nm was recorded on a SpectraMax iD3 plate reader (Molecular Devices) for 20 min with continuous monitoring at 30 s intervals.

IC50 [2]: 360 nM
inhibition of ABHD10 [3]: no detectable inhibition
Compound: CC1CCCN(C(=O)c2ccccc2C(=O)c2ccccc2)C1 (stereo not shown) [Compound 4]
compound-evoked changes in [Ca2+]i ([1]; 10 µM compound): only minuscule changes
effect on progesterone-induced Ca2+ signal (amplitude and waveform) ([1]; compounds 10 µM, TS150 60 µM, progesterone 3 µM): similar
